Source: US10233151B2, “Use of a novel 3-aryl-4-catechol-pyrrole-N-propanol compound and the derivatives thereof to treat cancer and diseases related to excessive angiogenesis” (Centre National de la Recherche Scientifique (CNRS), priority 2014, dated 2019)
Read-outs that look alike come from different tables or passages of the source.

System: HCT-116 cells
Assay: Cell growth test (CellTiter-Blue), HCT-116
Assay type: cell-based
Conditions: for cytotoxic effect relative to compound (1): 72 hours; for IC50: Homo sapiens, HCT-116, 48 h, 48 hours, read-out: IC50, cytotoxic effect
Experimental: The biological activity of compound (1), as well as that of its structural analogues, was studied in vitro on 7 different cancer cell lines: • HCT-116 (colorectal cancer) • U87 (glioblastoma) • K562 (myeloid leukemia) and K562 R • MDA-MB 231 (mammary adenocarcinoma) • MCF-7 (mammary adenocarcinoma) • A549 (pulmonary alveolar adenocarcinoma)
The cells selected for this study were incubated at 37° C. in the presence of compound (1) added in the culture medium at various concentrations and at various times. The set of experiments carried out made it possible to determine the degree of cytotoxicity of the compound tested (IC50), its capacity to induce cell death by apoptosis, in close dependence on extracellular superoxide anion for its activation. […]

Row | SMILES | cytotoxic effect relative to compound (1) (HCT-116, normoxia) | IC50 (HCT-116, hypoxia (2% O2)) | IC50 (HCT-116, normoxia)
1 | CCOCCCn1cc(-c2ccccc2)c(-c2ccc(O)c(O)c2)c1 [(4), 4-(1-(3-Ethoxypropyl)-4-phenyl-1H-pyrrole-3-yl)benzene-1,2-diol] | does not substantially change the IC50 value |  | 
2 | O=C1C=C(c2cn(CCCO)cc2-c2ccccc2)C=C(C2=C(O)C(c3cn(CCCO)cc3-c3ccccc3)=CC(O)C2O)C1=O (centres unmarked) [dimer MH+ 631] |  | 10 µM | 7.5 µM
3 | OCCCn1cc(-c2ccccc2)c(-c2ccc3c(c2)OCCO3)c1 [(2), 3-(3-(2,3-dihydrobenzo[b][1,4]dioxin-6-yl)-4-phenyl-1H-pyrrole-1-yl)propan-1-ol] | loss of cytotoxicity |  | 
4 | OCCCn1cc(-c2ccccc2)c(-c2ccccc2)c1 [(3), 3-(3,4-Diphenyl-1H-pyrrol)propan-1-ol] | loss of cytotoxicity |  | 
